Experimental data: ChEMBL document CHEMBL2390884, “Design, synthesis and antiproliferative activity studies of novel 1,2,3-triazole-dithiocarbamate-urea hybrids” (Eur J Med Chem, 2013)

Assays:
Assay type in all cases: functional, cell-based
MGC-803 = experiment: Cytotoxicity against human MGC803 cells after 72 hrs by MTT assay; conditions: MGC-803, 72 h
[1] = Cytotoxicity against human EC9706 cells after 72 hrs by MTT assay; conditions: EC9706, 72 h
SMMC-7721 = experiment: Cytotoxicity against human SMMC7721 cells after 72 hrs by MTT assay; conditions: SMMC-7721, 72 h
MCF7 = experiment: Cytotoxicity against human MCF7 cells after 72 hrs by MTT assay; conditions: MCF7, 72 h

With `COc1cc(Cn2cc(CSC(=S)N3CCN(C(N)=O)CC3)nn2)cc(OC)c1OC` the IC50 (MGC-803) was over 128 µM, the IC50 [1] was over 128 µM and the IC50 (SMMC-7721) was over 128 µM. The IC50 (MCF7) was over 128 µM.

In the case of `CCNC(=O)N1CCN(C(=S)SCc2cn(Cc3ccccc3F)nn2)CC1`, the IC50 (MGC-803) is reported as 2.83 µM, the IC50 [1] is reported as 23.7 µM and the IC50 (SMMC-7721) is reported as over 128 µM. The IC50 (MCF7) was 5.76 µM.

Compound `CCNC(=O)N1CCN(C(=S)SCc2cn(Cc3cc(OC)c(OC)c(OC)c3)nn2)CC1` has an IC50 (MGC-803) of 101 µM, an IC50 [1] of over 128 µM and an IC50 (SMMC-7721) of over 128 µM. For the same compound, the IC50 (MCF7) was over 128 µM.

For `O=C(NC1CCCCC1)N1CCN(C(=S)SCc2cn(Cc3ccc(F)cc3)nn2)CC1`, the IC50 (MGC-803) was over 128 µM, the IC50 [1] was over 128 µM and the IC50 (SMMC-7721) was over 128 µM. The IC50 (MCF7) was over 128 µM.

With `COc1ccc(Cn2cc(CSC(=S)N3CCN(C(=O)NC(C)C)CC3)nn2)cc1` the IC50 (MGC-803) was 99.2 µM, the IC50 [1] was over 128 µM and the IC50 (SMMC-7721) was over 128 µM. The IC50 (MCF7) was 19.6 µM.

`CCNC(=O)N1CCN(C(=S)SCc2cn(Cc3ccc(F)cc3)nn2)CC1` gave an IC50 (MGC-803) of 2.17 µM, an IC50 [1] of 27.8 µM and an IC50 (SMMC-7721) of 44.4 µM. It also gave an IC50 (MCF7) of 3.66 µM.

Work on `CCNC(=O)N1CCN(C(=S)SCc2cn(Cc3ccc(OC)cc3)nn2)CC1` yielded an IC50 (MGC-803) of over 128 µM, an IC50 [1] of over 128 µM and an IC50 (SMMC-7721) of over 128 µM. The IC50 (MCF7) was 97.6 µM.

Work on `Cc1ccc(Cn2cc(CSC(=S)N3CCN(C(=O)NC(C)C)CC3)nn2)cc1` yielded an IC50 (MGC-803) of 16.6 µM, an IC50 [1] of over 128 µM and an IC50 (SMMC-7721) of over 128 µM. It also gave an IC50 (MCF7) of 4.63 µM.

`O=C(NCc1ccccc1)N1CCN(C(=S)SCc2cn(Cc3ccccc3F)nn2)CC1` gave an IC50 (MGC-803) of 13.3 µM, an IC50 [1] of 38.1 µM and an IC50 (SMMC-7721) of over 128 µM. It also gave an IC50 (MCF7) of 38.1 µM.

`CCN(C)C(=O)N1CCN(C(=S)SCc2cn(Cc3ccc(OC)cc3)nn2)CC1` showed an IC50 (MGC-803) of 87.9 µM, an IC50 [1] of over 128 µM and an IC50 (SMMC-7721) of over 128 µM. It also gave an IC50 (MCF7) of 21.4 µM.

`CCNC(=O)N1CCN(C(=S)SCc2cn(Cc3ccc(Cl)cc3)nn2)CC1` gave an IC50 (MGC-803) of 35.4 µM, an IC50 [1] of over 128 µM and an IC50 (SMMC-7721) of over 128 µM. It also gave an IC50 (MCF7) of over 128 µM.

`CCN(C)C(=O)N1CCN(C(=S)SCc2cn(Cc3ccc(C)cc3)nn2)CC1` showed an IC50 (MGC-803) of 8.27 µM, an IC50 [1] of 70.6 µM and an IC50 (SMMC-7721) of over 128 µM. It also gave an IC50 (MCF7) of 40.1 µM.

`NC(=O)N1CCN(C(=S)SCc2cn(Cc3ccc(F)cc3)nn2)CC1` gave an IC50 (MGC-803) of 9.33 µM, an IC50 [1] of 62.7 µM and an IC50 (SMMC-7721) of over 128 µM. For the same compound, the IC50 (MCF7) was 22.1 µM.

For `CCN(C)C(=O)N1CCN(C(=S)SCc2cn(Cc3cc(OC)c(OC)c(OC)c3)nn2)CC1`, the IC50 (MGC-803) was 85.7 µM, the IC50 [1] was over 128 µM and the IC50 (SMMC-7721) was over 128 µM. The IC50 (MCF7) was 68.5 µM.
